Test results as given in US4587045A, “Intermediates for preparing octapeptide vasopressin antagonists” (SmithKline Beckman Corporation, priority 1985, dated 1986).
*1 amine or outer side, *2 acyl side, *3 side chain or, on linkers, in order; H or OH if unused. Where a SMILES comes first, the peptide text is derived from it. Bridges are numbered along the chain shown (N, C = ends). Where no end group is shown, it is not given here. [ ]: non-standard residue; d: D form. The star is where a group is joined. X1 = O=C(CC1(S[*:2])CCCCC1)[*:1]; Abu = CC[C@H](N)C(=O)O; NHPr = CCCN*

Legend:
[1] = molecular target: T1, vasopressin receptors (^3 H-vasopressin binding) (Sus scrofa, UniProt P32307); assay: Binding assay, ^3 H-vasopressin, hog kidney membranes; design: species or system Pig; details: for Kb: KB = IC50/(1+L/KD), ^3 H-vasopressin binding, hog kidney membranes, read-out: anti-ADH activity in vitro (Pig) KB
T1 construct: average KD value determined on 3 preparations of hog kidney membranes; from tissue; host or cells: hog kidney medullary membranes
Procedure: (§1) Details of the in vitro protocols are in F. L. Stassen et al., J. of Pharm. Exp. Ther. 233, 50-54 (1982) but the calculations of cyclase activity and binding potential at the receptor site are as follows:
Test Procedure for Binding Assay:
In each experiment, the amount of ^3 H-vasopressin bound in the absence and in the presence of an excess of vasopressin (7.5×10^-6 M) is measured in triplicate. These values represent total and non-specific binding, respectively. The KB of a compound is derived from the equation for competitive inhibition: KB =IC50 /(1+L/KD), where IC50 is the concentration required for 50% inhibition of specific ^3 H-vasopressin binding, L is the concentration of the ligand, and KD is the dissociation constant of ^3 H-vasopressin (KD =3.6×10^-9 M; 1 SD=0.4×10^-9 M). This is the average KD value determined on 3 preparations of hog kidney membranes.

[2] = molecular target: vascular pressor sites (V1 -receptors) (Rattus norvegicus, UniProt P30560)
Excerpt: The second group of vasopressin receptor sites are the vascular pressor sites (V1 -receptors) located within the cardiovascular system itself.

[3] = agonist series; cited from earlier work
[4] = compared with the respective parent compound; cited from earlier work
[5] = molecular target: T2, vasopressin receptors (V2 -receptors) (Rattus norvegicus, UniProt Q00788); assay: Hydropenic rat protocol (anti-ADH activity in vivo); details: estimated dose of peptide delivered ip which reduces Uosm from hydropenic levels to 300 mOsmoles/kg H2O
T2 construct: in vivo, in the hydropenic rat or the hydropenic monkey; from tissue; host or cells: whole animal (male hydropenic rat); renal receptors in situ
Procedure: as §1
Food and water are removed from male rats approximately 18 hours prior to testing. Animals are housed 4 per metabolism cage. At 0 hour, the test compound is administered intraperitoneally to the test group and an equivalent volume of vehicle is administered to both control groups (fasted and non-fasted). Urine volume and osmolality are measured every hour for 4 hours. Test values are recorded as ml of urine excreted (cumulative), mEq/rat electrolyte excreted, mg/rat urea excreted, and osmolality in milli-Osmoles/kg H2 O. A […] is used to determine significance. ED300 is defined as the dose of compound (μg/kg) required to lower urine osmolality to 300 m-Osmoles/kg. ED500 is defined as the dose of compound (μg/kg) required to lower urine osmolality to 500 m-Osmoles/kg. The hydropenic monkey protocol is similar.

[6] = molecular target: vasopressin stimulated adenylate cyclase activity; assay: Assay of adenylate cyclase activity, kidney medullary membrane; assay type: biochemical; details: pig kidney medullary membrane, read-out: anti-ADH activity in vitro (Pig) Ki
Procedure: as §1
Test Procedure for Assay of Adenylate Cyclase Activity:
In each experiment the amount of ^32 P/cAMP formed in the absence of medullary membrane is determined (blank). The blank value is subtracted from all experimental data. The compound is tested for its effect on basal adenylate cyclase activity and/or on vasopressin stimulated activity. Each determination is carried out in triplicate. The Ka value is derived from a Lineweaver-Burke plot. Rel. Vmax =(Vmax drug/Vmax vasopressin)×100. Ki =I/[(Ka'/Ka)-1] where I is the concentration of the antagonist, and Ka' and Ka are the concentrations of vasopressin required to give half-maximal activity of adenylate cyclase in the presence and absence of antagonist, respectively.

[7] = system: vasopressin receptors (V2 -receptors); assay: Conscious hydropenic squirrel monkey test (anti-ADH activity); assay type: in vivo
Procedure: Food and water are removed from male rats approximately 18 hours prior to testing. Animals are housed 4 per metabolism cage. At 0 hour, the test compound is administered intraperitoneally to the test group and an equivalent volume of vehicle is administered to both control groups (fasted and non-fasted). Urine volume and osmolality are measured every hour for 4 hours. Test values are recorded as ml of urine excreted (cumulative), mEq/rat electrolyte excreted, mg/rat urea excreted, and osmolality in milli-Osmoles/kg H2 O. A tolerance test is used to determine significance. […] The hydropenic monkey protocol is similar.

[8] = reported by Barth; cited from earlier work
[9] = reported by Barth; cited from earlier work; remark: listed apart in the source

T1 sequence (P32307 whole entry): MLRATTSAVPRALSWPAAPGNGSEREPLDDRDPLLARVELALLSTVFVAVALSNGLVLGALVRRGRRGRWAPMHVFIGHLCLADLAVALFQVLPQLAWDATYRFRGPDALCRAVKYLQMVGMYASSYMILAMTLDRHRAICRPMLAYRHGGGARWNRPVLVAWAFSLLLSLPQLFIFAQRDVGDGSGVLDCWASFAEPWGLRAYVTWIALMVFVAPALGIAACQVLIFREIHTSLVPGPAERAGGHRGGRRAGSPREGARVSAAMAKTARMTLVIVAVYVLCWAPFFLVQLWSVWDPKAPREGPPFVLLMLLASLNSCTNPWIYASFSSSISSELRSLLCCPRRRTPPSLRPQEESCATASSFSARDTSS
T2 sequence (Q00788 whole entry): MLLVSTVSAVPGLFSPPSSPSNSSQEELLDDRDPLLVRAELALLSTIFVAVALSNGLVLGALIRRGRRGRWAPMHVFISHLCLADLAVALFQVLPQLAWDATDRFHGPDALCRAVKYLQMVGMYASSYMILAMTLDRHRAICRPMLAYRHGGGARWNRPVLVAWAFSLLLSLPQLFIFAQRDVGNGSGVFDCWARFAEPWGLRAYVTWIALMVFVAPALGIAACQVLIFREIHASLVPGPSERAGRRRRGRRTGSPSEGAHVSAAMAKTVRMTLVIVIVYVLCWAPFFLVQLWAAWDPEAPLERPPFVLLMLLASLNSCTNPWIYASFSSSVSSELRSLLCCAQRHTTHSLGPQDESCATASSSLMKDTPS
Chain of vascular pressor sites (V1 -receptors) (P30560 whole entry): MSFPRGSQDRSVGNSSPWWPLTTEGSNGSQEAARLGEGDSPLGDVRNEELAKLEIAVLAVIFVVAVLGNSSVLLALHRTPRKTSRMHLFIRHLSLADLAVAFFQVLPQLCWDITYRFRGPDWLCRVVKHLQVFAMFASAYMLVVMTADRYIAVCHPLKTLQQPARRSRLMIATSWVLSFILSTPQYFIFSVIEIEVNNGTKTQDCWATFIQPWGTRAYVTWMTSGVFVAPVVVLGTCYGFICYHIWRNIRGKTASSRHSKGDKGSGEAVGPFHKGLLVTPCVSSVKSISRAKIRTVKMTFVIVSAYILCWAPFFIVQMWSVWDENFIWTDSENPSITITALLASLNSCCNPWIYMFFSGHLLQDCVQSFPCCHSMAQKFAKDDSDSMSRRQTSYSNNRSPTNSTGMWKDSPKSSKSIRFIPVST

In the case of `CC(C)[C@@H]1NC(=O)[C@H](Cc2ccccc2)NC(=O)[C@@H](Cc2ccc(O)cc2)NC(=O)CC2(CCCCC2)SSC[C@@H](C(=O)N2CCC[C@H]2C(=O)N[C@@H](CCCNC(=N)N)C(N)=O)NC(=O)[C@H](CC(N)=O)NC1=O` [Compound 2, [1-(β-mercapto-β,β-cyclopentamethylenepropionic acid)-2-D-tyrosine-4-valine-8-arginine-9-desglycine]vasopressin] ([dY]FVNCPR-NH2; linker N-5 via X1), the Kb [1] is reported as 65 nM.
`CC(C)[C@@H]1NC(=O)[C@H](Cc2ccccc2)NC(=O)[C@@H](Cc2ccc(O)cc2)NC(=O)CC2(CCCCC2)SSC[C@@H](C(=O)N2CCC[C@H]2C(=O)N[C@@H](CCCNC(=N)N)C(=O)O)NC(=O)[C@H](CC(N)=O)NC1=O` [Compound 3, [1-(β-mercapto-β,β-cyclopentamethylenepropionic acid)-2-D-tyrosine-4-valine-8-arginine-9-desglycinamide]vasopressin] ([dY]FVNCPR-OH; linker N-5 via X1) showed a Kb [1] of 350 nM.
In the case of `CCOc1ccc(C[C@H]2NC(=O)CC3(CCCCC3)SSC[C@@H](C(=O)N3CCC[C@H]3C(=O)N[C@@H](CCCNC(=N)N)C(N)=O)NC(=O)[C@H](CC(N)=O)NC(=O)[C@H](C(C)C)NC(=O)[C@H](Cc3ccccc3)NC2=O)cc1` [Compound 5, [1-(β-mercapto-β,β-cyclopentamethylenepropionicacid)-2-(O-ethyl-D-tyrosine)-4-valine-8-arginine-9-desglycine]vasopressin] ([dY](Et)FVNCPR-NH2; linker N-5 via X1), the Kb [2] is reported as 3.98 nM, the “pA2, inhibition of vasopressin-induced vasoconstriction” value ([2]; in vivo) is reported as 7.71 and the Kb [1] is reported as 7.8 nM.
In the case of `CCOc1ccc(C[C@H]2NC(=O)CC3(CCCCC3)SSC[C@@H](C(=O)N3CCC[C@H]3C(=O)N[C@@H](CCCNC(=N)N)C(N)=O)NC(=O)[C@H](CC(N)=O)NC(=O)[C@H](CC)NC(=O)[C@H](Cc3ccccc3)NC2=O)cc1` [Compound 6] ([dY](Et)F[Abu]NCPR-NH2; linker N-5 via X1), the Kb [1] is reported as 18 nM.
In the case of “desglycine^9 -oxytocin (CYIQNCPL; disulfide 1-6 (inferred); ends not checked; UniProt P01178 20-28, looked up, variant G9*) [literature agonist analog, B. Berde et al]”, the “effect on blood pressure compared with oxytocin” value [3] is listed as “opposite effect” and the “activity of the parent compound retained” value [4] is listed as “little”.
For “des-lysine^8 -desglycinamide^9 -vasopressin”, the “activity of the parent compound retained” value [4] is given as “little”.
With `CC(C)[C@@H]1NC(=O)[C@H](Cc2ccccc2)NC(=O)[C@@H](Cc2ccc(O)cc2)NC(=O)CC2(CCCCC2)SSC[C@@H](C(=O)N2CCC[C@H]2C(=O)N[C@@H](CCCNC(=N)N)C(=O)NCC(N)=O)NC(=O)[C@H](CC(N)=O)NC1=O` [Compound 1] ([dY]FVNCPRG-NH2; linker N-5 via X1) the “anti-ADH activity in vivo (Rat) ED300” value [5] was 0.032 mg/kg and the Ki [6] was 30 nM.
In the case of `CCOc1ccc(C[C@H]2NC(=O)CC3(CCCCC3)SSC[C@@H](C(=O)N3CCC[C@H]3C(=O)N[C@@H](CCCNC(=N)N)C(=O)NCC(N)=O)NC(=O)[C@H](CC(N)=O)NC(=O)[C@H](C(C)C)NC(=O)[C@H](Cc3ccccc3)NC2=O)cc1` [Compound 4] ([dY](Et)FVNCPRG-NH2; linker N-5 via X1), the “anti-ADH activity in vivo (Rat) ED300” value [5] is reported as 0.0099 mg/kg, the Ki [6] is reported as 5.9 nM and the “ED300, dose required to decrease urine osmolality to 300M Osm/kg water” value [7] is reported as 33.1 nmol/kg.
Work on `CCCNC(=O)[C@H](CCCNC(=N)N)NC(=O)[C@@H]1CCCN1C(=O)[C@@H]1CSSC2(CCCCC2)CC(=O)N[C@H](CC(C)C)C(=O)N[C@@H](Cc2ccccc2)C(=O)N[C@@H](C(C)C)C(=O)N[C@@H](CC(N)=O)C(=O)N1` [Example 4] ([dL]FVNCPR-NHPr; linker N-5 via X1) yielded an inhibition at 10 µM ([1]; at 10^-5 M, read-out: Kbind, inhibition) of 12.1%.
In the case of des-glycinamide^9 -vasopressin, the “antidiuretic or uterotonic activity” value [8] is given as “practically no”, the CNS activity [9] is given as “has CNS activity” and the “activity of the parent compound retained” value [4] is given as “little”.
